Data published in patent publication US9763957B2, “Autotaxin inhibitors” (Novartis AG, priority 2013, dated 2017).
pIC50: −log10 of the molar value.

The molecules below were run against Recombinant human ATX (Homo sapiens (Human), UniProt Q13822) (assay: ATX inhibition assay (choline release, Amplex Red fluorescence)). Settings: ATX 10 nM, LPC 18:1 10 μM, 37° C., 20 min pre-incubation; mean of n≧2.
Assay type: biochemical
Procedure: Reagents—LPC (oleoyl (18:1)) was purchased from Avanti Polar Lipids (Alabaster, Ala.) and solubilized in methanol to 20 mM. Amplex Red was obtained from Invitrogen Life Technologies (Paisley, UK) and dissolved in DMSO to 10 mM. Choline oxidase and horseradish peroxidase (HRP) were obtained from Sigma Aldrich (Dorset, UK) and dissolved in HBSS to 20 U/ml and 200 U/ml respectively. All reagents were stored at −20° C. in single use aliquots. All experimental measurements were performed in assay buffer made up immediately prior to use (HBSS, 0.01% BSA essentially fatty acid free).
PerkinElmer EnVision (Fluorescence Intensity/Absorbance Monochromator) or Tecan Infinite 200 PRO series plate reader was used to detect change in fluorescent intensity.
Assessing ATX inhibition—ATX activity was determined by measurement of released choline in reactions containing ATX (10 nM), choline oxidase (0.1 U/ml), HRP (100 U/ml), amplex red (50 μM) and LPC 18:1 (10 μM). Compounds of the invention were prepared as 10 point serial dilutions from 1 μM in duplicate and pre-incubated with ATX at 37° C. for 20 minutes prior to the addition of remaining reagents. The liberated choline was measured from changes in fluorescence intensity (λex 530 nm, λem 590 nm) of the product resurofin at 37° C. every 2 minutes over a 40-minute period. ATX activity was measured as a slope of the linear portion of the progress curve, typically between 14 to 24 minutes.
Data analysis—Slope data was exported to Graphpad prism (Graphpad software, San Diego, Calif.) where data was fitted to equation 1. Y=Bottom+(Top-Bottom)/(1+10^((Log IC50−X)*HillSlope)) Equation 1: […]

Compound | pIC50
Cc1ncn(C2CCN(C(=O)/C=C/c3ccc(C(F)(F)F)cc3Cn3nnc(C)n3)CC2)n1 [Example 37, (E)-1-(4-(3-Methyl-1H-1,2,4-triazol-1-yl)piperidin-1-yl)-3-(2-((5-methyl-2H-tetrazol-2-yl)methyl)-4-(trifluoromethyl)phenyl)prop-2-en-1-one] | 7.77
Cc1nnn(Cc2cc(C(F)(F)F)ccc2/C=C/C(=O)N2CCC(N(C)C(=O)c3ccc(F)cc3)CC2)n1 [Example 87] | 7.72
Cc1nnn(Cc2cc(C(F)(F)F)ccc2/C=C/C(=O)N2CCN(Cc3cnn(C)c3)CC2)n1 [Example 53, (E)-1-(4-((1-Methyl-1H-pyrazol-4-yl)methyl)piperazin-1-yl)-3-(2-((5-methyl-2H-tetrazol-2-yl)methyl)-4-(trifluoromethyl)phenyl)prop-2-en-1-one] | 8.70
Cc1nnn(Cc2cc(C(F)(F)F)ccc2/C=C/C(=O)N2CCOCC2C(F)(F)F)n1 (stereo not shown) [Example 142, (E)-3-(2-((5-Methyl-2H-tetrazol-2-yl)methyl)-4-(trifluoromethyl)phenyl)-1-(3-(trifluoromethyl)morpholino)prop-2-en-1-one] | 7.92
Cc1nnn(Cc2cc(C(F)(F)F)ccc2/C=C/C(=O)N2CCC(NC(=O)CCCc3c[nH]nn3)CC2)n1 [Example 152, (E)-N-(1-(3-(2-((5-Methyl-2H-tetrazol-2-yl)methyl)-4-(trifluoromethyl)phenyl)acryloyl)piperidin-4-yl)-4-(1H-1,2,3-triazol-4-yl)butanamide] | 8.41
Cc1nnn(Cc2cc(Cl)ccc2/C=C/C(=O)N2CCC(Cc3nnc(CN4CCOCC4)o3)CC2)n1 [Example 136, (E)-3-(4-Chloro-2-((5-methyl-2H-tetrazol-2-yl)methyl)phenyl)-1-(4-((5-(morpholinomethyl)-1,3,4-oxadiazol-2-yl)methyl)piperidin-1-yl)prop-2-en-1-one] | 7.49
Cc1nnn(Cc2cc(C(F)(F)F)ccc2/C=C/C(=O)N2CCN(Cc3coc(C)n3)CC2)n1 [Example 74, (E)-3-(2-((5-Methyl-2H-tetrazol-2-yl)methyl)-4-(trifluoromethyl)phenyl)-1-(4-((2-methyloxazol-4-yl)methyl)piperazin-1-yl)prop-2-en-1-one] | 8.26
Cc1nnn(Cc2cc(Cl)ccc2/C=C/C(=O)N2CCC(Cc3ccccc3)CC2)n1 [Example 139, (E)-1-(4-Benzylpiperidin-1-yl)-3-(4-chloro-2-((5-methyl-2H-tetrazol-2-yl)methyl)phenyl)prop-2-en-1-one] | 7.17
Cc1nnn(Cc2cc(Cl)ccc2/C=C/C(=O)N2CCC(n3nnc(C)n3)CC2)n1 [Example 17, (E)-3-(4-Chloro-2-((5-methyl-2H-tetrazol-2-yl)methyl)phenyl)-1-(4-(5-methyl-2H-tetrazol-2-yl)piperidin-1-yl)prop-2-en-1-one] | 7.62
Cc1nnn(Cc2cc(C(F)(F)F)ccc2/C=C/C(=O)N2CCC(NC(=O)CCCCCc3cnn[nH]3)CC2)n1 [Example 156, (E)-N-(1-(3-(2-((5-Methyl-2H-tetrazol-2-yl)methyl)-4-(trifluoromethyl)phenyl)acryloyl)piperidin-4-yl)-6-(1H-1,2,3-triazol-5-yl)hexanamide] | 8.28
Cc1nnn(Cc2ccc(Cl)cc2/C=C/C(=O)N2CCC(Cc3nnc(C)o3)CC2)n1 [Example 43, (E)-3-(5-Chloro-2-((5-methyl-2H-tetrazol-2-yl)methyl)phenyl)-1-(4-((5-methyl-1,3,4-oxadiazol-2-yl)methyl)piperidin-1-yl)prop-2-en-1-one] | 5.62
Cc1nnn(Cc2cc(Cl)ccc2/C=C/C(=O)N2CCC(CCCc3nnc(C)o3)CC2)n1 [Example 26, (E)-3-(4-Chloro-2-((5-methyl-2H-tetrazol-2-yl)methyl)phenyl)-1-(4-(3-(5-methyl-1,3,4-oxadiazol-2-yl)propyl)piperidin-1-yl)prop-2-en-1-one] | 7.51
Cc1nnn(Cc2cc(Cl)ccc2/C=C/C(=O)N2CC(Oc3ccc(F)cc3)C2)n1 [Example 130, (E)-3-(4-Chloro-2-((5-methyl-2H-tetrazol-2-yl)methyl)phenyl)-1-(3-(4-fluorophenoxy)azetidin-1-yl)prop-2-en-1-one] | 6.77
Cc1nnn(Cc2cc(C(F)(F)F)ccc2CCC(=O)N2CCC(CCCCCc3c[nH]nn3)CC2)n1 [Example 153, 1-(4-(5-(1H-1,2,3-Triazol-4-yl)pentyl)piperidin-1-yl)-3-(2-((5-methyl-2H-tetrazol-2-yl)methyl)-4-(trifluoromethyl)phenyl)propan-1-one] | 8.70
Cc1nnn(Cc2cc(Cl)ccc2/C=C/C(=O)N2CCC(O)(Cn3cc(C(=O)O)cn3)CC2)n1 [Example 35, (E)-1-((1-(3-(4-Chloro-2-((5-methyl-2H-tetrazol-2-yl)methyl)phenyl)acryloyl)-4-hydroxypiperidin-4-yl)methyl)-1H-pyrazole-4-carboxylic acid] | 6.03
Cc1nnn(Cc2cc(C(F)(F)F)ccc2/C=C/C(=O)N2CCCCC2C(F)(F)F)n1 (stereo not shown) [Example 124, (E)-3-(2-((5-Methyl-2H-tetrazol-2-yl)methyl)-4-(trifluoromethyl)phenyl)-1-(2-(trifluoromethyl)piperidin-1-yl)prop-2-en-1-one] | 7.46
Cc1nnn(Cc2cc(Cl)ccc2/C=C/C(=O)N2CCC(n3nnnc3C)CC2)n1 [Example 12, (E)-3-(4-Chloro-2-((5-methyl-2H-tetrazol-2-yl)methyl)phenyl)-1-(4-(5-methyl-1H-tetrazol-1-yl)piperidin-1-yl)prop-2-en-1-one] | 6.80
CNC(=O)[C@@H]1CCCCN1C(=O)/C=C/c1ccc(C(F)(F)F)cc1Cn1nnc(C)n1 [Example 6, (S,E)-N-Methyl-1-(3-(2-((5-methyl-2H-tetrazol-2-yl)methyl)-4-(trifluoromethyl)phenyl)acryloyl)piperidine-2-carboxamide] | 7.74
CC(=O)NC1CCN(C(=O)/C=C/c2ccc(Cl)cc2Cn2nnc(C)n2)CC1 [Example 125, (E)-N-(1-(3-(4-Chloro-2-((5-methyl-2H-tetrazol-2-yl)methyl)phenyl)acryloyl)piperidin-4-yl)acetamide] | 6.96
Cc1nnn(Cc2cc(Cl)ccc2COC(=O)N2CCC(c3ncc(C)o3)CC2)n1 [Example 48, 4-Chloro-2-((5-methyl-2H-tetrazol-2-yl)methyl)benzyl 4-(5-methyloxazol-2-yl)piperidine-1-carboxylate] | 7.15

Further lines, results first:

pIC50 | Compound
6.83 | Cc1nnn(Cc2cc(Cl)ccc2/C=C/C(=O)N2CCCC(c3nc(C(C)C)no3)C2)n1 (single isomer, unassigned) [Example 34b, (R or S, E)-3-(4-chloro-2-((5-methyl-2H-tetrazol-2-yl)methyl)phenyl)-1-(3-(3-isopropyl-1,2,4-oxadiazol-5-yl)piperidin-1-yl)prop-2-en-1-one]
7.77 | Cc1nnn(Cc2cc(Cl)ccc2/C=C/C(=O)N2CCC(Oc3ccccc3C(=O)N(C)C)CC2)n1 [Example 49.13, (E)-2-((1-(3-(4-Chloro-2-((5-methyl-2H-tetrazol-2-yl)methyl)phenyl)acryloyl)piperidin-4-yl)oxy)-N,N-dimethyl benzamide]
5.97 | Cc1nnn(Cc2cc(Cl)ccc2/C=C/C(=O)N2CCCC(c3nncn3C)C2)n1 (stereo not shown) [Example 49.16, (E)-3-(4-Chloro-2-((5-methyl-2H-tetrazol-2-yl)methyl)phenyl)-1-(3-(4-methyl-4H-1,2,4-triazol-3-yl)piperidin-1-yl)prop-2-en-1-one]
7.52 | Cc1nnn(Cc2cc(Cl)ccc2/C=C/C(=O)N2CCN(Cc3coc(C)n3)CC2)n1 [Example 140.3, (E)-3-(4-Chloro-2-((5-methyl-2H-tetrazol-2-yl)methyl)phenyl)-1-(4-((2-methyloxazol-4-yl)methyl)piperazin-1-yl)prop-2-en-1-one]
7.19 | Cc1cc(CN2CCN(C(=O)/C=C/c3ccc(Cl)cc3Cn3nnc(C)n3)CC2)on1 [Example 140.2, (E)-3-(4-Chloro-2-((5-methyl-2H-tetrazol-2-yl)methyl)phenyl)-1-(4-((3-methylisoxazol-5-yl)methyl)piperazin-1-yl)prop-2-en-1-one]
7.11 | COC(=O)C1COCCN1C(=O)/C=C/c1ccc(Cl)cc1Cn1nnc(C)n1 (stereo not shown) [Example 49.23, (E)-Methyl 4-(3-(4-Chloro-2-((5-methyl-2H-tetrazol-2-yl)methyl)phenyl)acryloyl)morpholine-3-carboxylate]
7.37 | Cc1nnn(Cc2cc(Cl)ccc2/C=C/C(=O)N2CCN(Cc3nc4ccccc4n3C)CC2)n1 [Example 140.4, (E)-3-(4-Chloro-2-((5-methyl-2H-tetrazol-2-yl)methyl)phenyl)-1-(4-((1-methyl-1H-benzo[d]imidazol-2-yl)methyl)piperazin-1-yl)prop-2-en-1-one]
6.32 | Cc1nnn(Cc2cc(Cl)ccc2/C=C/C(=O)N2CC(S(C)(=O)=O)C2)n1 [Example 49.2, (E)-3-(4-Chloro-2-((5-methyl-2H-tetrazol-2-yl)methyl)phenyl)-1-(3-(methylsulfonyl)azetidin-1-yl)prop-2-en-1-one]
